Measurements published in patent US5272147A, “Pyrazolopyrimidinone antianginal agents” (Pfizer Inc., priority 1991, dated 1993).

Key:
Type in all cases: biochemical
[1] = test system: Ca/CAM-independent cGMP PDE; experiment: Phosphodiesterase activity: inhibition of calcium/calmodulin (Ca/CAM)-independent cGMP PDE from rabbit platelets; details: between Ca/CAM-independent cGMP PDE and cGMP-inhibited cAMP PDE (IC50 cAMP / IC50 cGMP)
Procedure: (§1) Compound affinities for cGMP and cAMP PDEs are assessed by determination of their IC50 value (the concentration of inhibitor required for 50% inhibition of enzyme activity). The PDE enzymes are isolated from rabbit platelets and rat kidney, essentially by the method of W. J. Thompson et al. (Biochem., 1971, 10, 311). The calcium/calmodulin (Ca/CAM)-independentcGMP PDE and the cGMP-inhibited cAMP PDE enzymes are obtained from rabbit platelets whilst, of the four major PDE enzymes of the rat kidney, the Ca/CAM-dependent cGMP PDE (fraction I) is isolated. Assays are performed using a modification of the "batch" method of W. J. Thompson and M. M. Appleman (Biochem., 1979, 18, 5228).

[2] = target: T1, Ca/CAM-independent cGMP PDE (Oryctolagus cuniculus, UniProt G1SX67); experiment: as above; details: in vitro; Ca/CAM-independent cGMP PDE from rabbit platelets
T1 construct: The PDE enzymes are isolated from rabbit platelets and rat kidney; from tissue; host or cells: rabbit platelets
Procedure: as §1

[3] = target: T2, cGMP-inhibited cAMP PDE (Oryctolagus cuniculus, UniProt G1ST54); experiment: Phosphodiesterase activity: inhibition of cGMP-inhibited cAMP PDE from rabbit platelets; details: in vitro
T2 construct: The PDE enzymes are isolated from rabbit platelets and rat kidney; from tissue; host or cells: rabbit platelets
T2 sequence (G1ST54 1-1128): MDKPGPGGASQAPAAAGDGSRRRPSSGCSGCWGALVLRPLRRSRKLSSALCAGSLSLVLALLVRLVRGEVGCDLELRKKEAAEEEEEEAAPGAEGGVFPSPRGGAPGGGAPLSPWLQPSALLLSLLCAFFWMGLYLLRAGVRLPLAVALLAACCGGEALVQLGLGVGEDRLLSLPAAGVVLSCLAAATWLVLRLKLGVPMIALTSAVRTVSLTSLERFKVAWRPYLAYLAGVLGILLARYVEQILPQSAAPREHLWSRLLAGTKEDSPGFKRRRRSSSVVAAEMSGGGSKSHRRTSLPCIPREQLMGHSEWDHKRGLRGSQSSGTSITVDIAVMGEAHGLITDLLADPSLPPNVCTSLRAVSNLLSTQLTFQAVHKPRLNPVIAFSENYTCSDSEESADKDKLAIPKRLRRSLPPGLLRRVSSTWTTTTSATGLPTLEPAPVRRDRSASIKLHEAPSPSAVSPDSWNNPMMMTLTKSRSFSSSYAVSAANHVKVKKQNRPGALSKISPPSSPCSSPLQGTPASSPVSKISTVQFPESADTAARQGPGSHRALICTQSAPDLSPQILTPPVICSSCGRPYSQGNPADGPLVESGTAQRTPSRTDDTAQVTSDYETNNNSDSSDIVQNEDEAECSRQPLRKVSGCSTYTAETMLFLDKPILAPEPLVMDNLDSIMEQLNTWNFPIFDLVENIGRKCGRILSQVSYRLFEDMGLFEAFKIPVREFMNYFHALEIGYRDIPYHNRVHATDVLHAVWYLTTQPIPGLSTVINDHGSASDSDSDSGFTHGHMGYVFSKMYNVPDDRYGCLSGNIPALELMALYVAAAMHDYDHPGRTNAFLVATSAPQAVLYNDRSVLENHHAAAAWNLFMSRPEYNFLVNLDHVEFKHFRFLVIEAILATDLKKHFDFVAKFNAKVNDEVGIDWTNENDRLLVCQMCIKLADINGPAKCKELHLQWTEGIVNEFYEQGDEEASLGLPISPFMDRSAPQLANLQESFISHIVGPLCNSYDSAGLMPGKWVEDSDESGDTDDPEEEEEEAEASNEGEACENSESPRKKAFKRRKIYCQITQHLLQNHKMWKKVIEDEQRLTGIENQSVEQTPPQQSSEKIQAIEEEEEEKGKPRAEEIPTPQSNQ
Procedure: as §1

| IC50 [2] [µM] | IC50 [3] [µM] | SMILES | SELECTIVITY RATIO [1] |
| --- | --- | --- | --- |
| 0.0022 | 86 | CCCc1nn(C)c2c(=O)[nH]c(-c3cc(C(=O)CN4CCN(C(C)=O)CC4)ccc3OCC)nc12 [Example 3, 5-[5-(4-acetyl-1-piperazinyl)acetyl-2-ethoxyphenyl]-1-methyl-3-n-propyl-1,6-dihydro-7H-pyrazolo[4,3-d]pyrimidin-7-one] | 39,090 |
| 0.0018 | 63 | CCCc1nn(C)c2c(=O)[nH]c(-c3cc(C(=O)CN4CCOCC4)ccc3OCC)nc12 [Example 4, 5-(2-ethoxy-5-morpholinoacetylphenyl)-1-methyl-3-n-propyl-1,6dihydro-7H-pyrazolo[4,3-d]pyrimidin-7-one] | 35,000 |
| 0.0049 | 57 | CCCc1nn(C)c2c(=O)[nH]c(-c3cc(C(O)CN4CCOCC4)ccc3OCC)nc12 (centres unmarked) [Example 11] | 11,632 |
| 0.001 | 57 | CCCOc1ccc(C(=O)CN2CCOCC2)cc1-c1nc2c(CCC)nn(C)c2c(=O)[nH]1 [Example 14, 1-Methyl-5-(5-morpholinoacetyl-2-n-propoxyphenyl)-3-n-propyl-1,6-dihydro-7H-pyrazolo[4,3-d]pyrimidin-7-one] | 57,000 |
| 0.0034 | 75 | CCCOc1ccc(C(=O)CN2CCN(C)CC2)cc1-c1nc2c(CCC)nn(C)c2c(=O)[nH]1 [Example 15, 1-Methyl-5-[5-(4-methyl-1-piperazinylacetyl)-2n-propoxyphenyl]-3-n-propyl-1,6-dihydro-7H-pyrazolo [4,3-d]pyrimidin-7-one] | 22,058 |
| 0.0037 | 53 | CCCOc1ccc(C(O)CN2CCOCC2)cc1-c1nc2c(CCC)nn(C)c2c(=O)[nH]1 (centres unmarked) [Example 16, 5-[5-(1-Hyroxy-2-morpholinoethyl)-2-n-propoxyphenyl]-1-methyl-3-n-propyl-1,6-dihydro-7H-pyrazolo[4,3-d]pyrimidin-7-one] | 14,324 |
| 0.0037 | 59 | CCCOc1ccc(/C=C/C(=O)O)cc1-c1nc2c(CCC)nn(C)c2c(=O)[nH]1 [Example 20, (E)-3-(1-Methyl-7-oxo-3-n-propyl-1,6-dihydro-7H-pyrazolo[4,3-d]-pyrimidin-5-yl)-4-n-propoxycinnamic acid] | 15,945 |
| 0.0034 | 84 | CCCc1nn(C)c2c(=O)[nH]c(-c3cc(/C=C/C(=O)N(C)C)ccc3OCC)nc12 [Example 25, (E)-4-Ethoxy-3(1-methyl-3-n-propyl-1,6-dihydro-7H-pyrazolo[4,3-d]-pyrimidin-5-yl)cinnamic acid dimethylamide] | 24,705 |
| 0.0055 | 84 | CCCc1nn(C)c2c(=O)[nH]c(-c3cc(C(=O)O)ccc3OCC)nc12 [Example 29, 4-Ethoxy-3-(-1-methyl-3-n-propyl-1,6-dihydro-7H-pyrazolo[4,3-d]-pyrimidin-5-yl)benzoic acid] | 15,272 |
| 0.0014 | 58 | CCCc1nn(C)c2c(=O)[nH]c(-c3cc(C(=O)N4CCN(C)CC4)ccc3OCC)nc12 [Example 30, 5-[2-Ethoxy-5-(4-methylpiperazinylcarbonyl)phenyl]-1-methyl-3-n-propyl-1,6-dihydro-7H-pyrazolo[4,3-d]-pyrimidin-7-one] | – |
| 0.0034 | 56 | CCCc1nn(C)c2c(=O)[nH]c(-c3cc(-n4ccnc4)ccc3OCC)nc12 [Example 31, 5-[2-Ethoxy-5-(1-imidazolyl)phenyl]-1-methyl-3-n-propyl-1,6-dihydro-7H-pyrazolo[4,3-d]-pyrimidin-7-one] | 16,470 |
| 0.0014 | 38 | CCCc1nn(C)c2c(=O)[nH]c(-c3cc(-c4nccn4C)ccc3OCC)nc12 [Example 32, 5-[2-ethoxy-5-(1-methyl-2-imidazolyl)phenyl]-1methyl-3-n-propyl-1,6-dihydro-7H-pyrazolo[4,3-d]pyrimidin-7-one] | 27,142 |
| 0.0053 | 54 | CCCOc1ccc(COCCO)cc1-c1nc2c(CCC)nn(C)c2c(=O)[nH]1 [Example 39, 5-[5-(2-Hydroxyethoxymethyl)-2-n-propoxyphenyl]-1-methyl-3-n-propyl-1,6-dihydro-7H-pyrazolo[4,3-d]-pyrimidin-7-one] | 10,188 |
